Results from US9133163B2, “Dihydropyrazole GPR40 modulators” (Bristol-Myers Squibb Company, priority 2012, dated 2015).

What follows are molecules tested against hGPR40 (Homo sapiens, UniProt O14842) (assay: FDSS-based intracellular calcium assay). Conditions: intracellular Ca2+ response, cells expressing GPR40.
Format: cell-based
Set-up: 3xFLAG; expressed in transfected cells
Protocol: FDSS-Based Intracellular Calcium Assay
Compounds are dissolved in DMSO and diluted to desired concentrations with assay buffer and added to the cells as 3× solution (20 μL per well). Run fluorescence/luminescence reader FDSS (Hamamatsu) to read intracellular Ca^2+ response.

hGPR40, sequence (O14842 whole entry): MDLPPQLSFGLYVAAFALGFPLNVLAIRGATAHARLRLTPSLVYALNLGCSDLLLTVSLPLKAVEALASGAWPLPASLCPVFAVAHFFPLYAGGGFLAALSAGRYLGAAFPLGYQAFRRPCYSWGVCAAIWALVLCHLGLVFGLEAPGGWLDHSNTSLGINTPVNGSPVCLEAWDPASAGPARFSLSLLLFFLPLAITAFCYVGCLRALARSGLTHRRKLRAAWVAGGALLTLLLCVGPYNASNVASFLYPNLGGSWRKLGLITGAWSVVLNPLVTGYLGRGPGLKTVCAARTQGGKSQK

| Compound | EC50 |
| --- | --- |
| C[C@@H]1C(C(F)(F)F)=NN(c2ccc(OC3CCN(c4cc(Cl)ccc4F)CC3)cc2)[C@H]1CC(=O)O [Example 64, 2-((4S,5S)-1-(4-((1-(5-Chloro-2-fluorophenyl)piperidin-4-yl)oxy)phenyl)-4-methyl-3-(trifluoromethyl)-4,5-dihydro-1H-pyrazol-5-yl)acetic acid] | 0.512 µM |
| COc1cccc(F)c1N1CCC(Oc2ccc(N3N=C(C(F)(F)F)[C@@H](C)[C@@H]3CC(=O)O)cc2)CC1 [Example 54, 2-((4S,5S)-1-(4-((1-(2-Fluoro-6-methoxyphenyl)piperidin-4-yl)oxy)phenyl)-4-methyl-3-(trifluoromethyl)-4,5-dihydro-1H-pyrazol-5-yl)acetic acid] | 5.9 µM |
| COc1ccccc1N1CCC(Oc2ccc(N3N=C(C(F)(F)F)[C@@H](C)[C@@H]3CC(=O)O)cc2)CC1 [Example 46, 2-((4S,5S)-1-(4-((1-(2-Methoxyphenyl)piperidin-4-yl)oxy)phenyl)-4-methyl-3-(trifluoromethyl)-4,5-dihydro-1H-pyrazol-5-yl)acetic acid] | 1.7 µM |
| COc1cc(N2CCC(Oc3ccc(N4N=C(C(F)(F)F)[C@@H](C)[C@@H]4CC(=O)O)cc3)C(F)C2)c(Cl)cn1 (single isomer, unassigned) [Example A1, Isomer 1] | 0.184 µM |
| C[C@@H]1C(C(F)(F)F)=NN(c2ccc(OC3CCN(c4cccc(Cl)c4)CC3)cc2)[C@H]1CC(=O)O [Example 50, 2-((4S,5S)-1-(4-((1-(3-Chlorophenyl)piperidin-4-yl)oxy)phenyl)-4-methyl-3-(trifluoromethyl)-4,5-dihydro-1H-pyrazol-5-yl)acetic acid] | 2.84 µM |
| C[C@@H]1C(C(F)(F)F)=NN(c2ccc(OC3CCN(c4ccc(F)cc4Cl)CC3)cc2)[C@H]1CC(=O)O [Example 62, 2-((4S,5S)-1-(4-((1-(2-Chloro-4-fluorophenyl)piperidin-4-yl)oxy)phenyl)-4-methyl-3-(trifluoromethyl)-4,5-dihydro-1H-pyrazol-5-yl)acetic acid] | 0.382 µM |
| COc1ccc(F)c(N2CCC(Oc3ccc(N4N=C(C(F)(F)F)[C@@H](C)[C@@H]4CC(=O)O)cc3)C(F)C2)c1 (single isomer, unassigned) [Example 57 (Isomer 2)] | 0.119 µM |
| Cc1ccc(C)c(N2CCC(Oc3ccc(N4N=C(C(F)(F)F)[C@@H](C)[C@@H]4CC(=O)O)cc3)CC2)c1 [Example 43, 2-((4S,5S)-1-(4-((1-(2,5-Dimethylphenyl)piperidin-4-yl)oxy)phenyl)-4-methyl-3-(trifluoromethyl)-4,5-dihydro-1H-pyrazol-5-yl)acetic acid] | 1.07 µM |
| CCOc1ccc(F)c(N2CC[C@H](Oc3ccc(N4N=C(C(F)(F)F)[C@@H](C)[C@@H]4CC(=O)O)cc3)[C@@H](C)C2)c1 [Example 30, 2-((4S,5S)-1-(4-(((3S,4S)-1-(5-Ethoxy-2-fluorophenyl)-3-methylpiperidin-4-yl)oxy)phenyl)-4-methyl-3-(trifluoromethyl)-4,5-dihydro-1H-pyrazol-5-yl)acetic acid] | 1.2 µM |
| C[C@@H]1C(C(F)(F)F)=NN(c2ccc(OC3CCN(c4cc(Cl)ccc4Cl)CC3)cc2)[C@H]1CC(=O)O [Example 35, 2-((4S,5S)-1-(4-((1-(2,5-Dichlorophenyl)piperidin-4-yl)oxy)phenyl)-4-methyl-3-(trifluoromethyl)-4,5-dihydro-1H-pyrazol-5-yl)acetic acid] | 0.254 µM |
| CCOc1cc(N2CC[C@H](Oc3ccc(N4N=C(C(F)(F)F)[C@@H](C)[C@@H]4CC(=O)O)cc3)[C@@H](C)C2)c(Cl)cn1 [Example 82, 2-((4S,5S)-1-(4-(((3S,4S)-1-(5-Chloro-2-ethoxypyridin-4-yl)-3-methylpiperidin-4-yl)oxy)phenyl)-4-methyl-3-(trifluoromethyl)-4,5-dihydro-1H-pyrazol-5-yl)acetic acid] | 0.76 µM |
